Drawing on the kinase profiling compilation of Christmann-Franck et al. (2016), this text covers kinase still bound, per cent of control for eleven compounds.

What all share (assay): KINOMEscan competition binding
What all share (settings): compound 10.0 µM

Experiment [1] has as its target LYN (human) (UniProt P07948).
Experiment [2] has as its target PAK3 (human) (UniProt O75914).
Experiment [3] has as its target SLK (human) (UniProt Q9H2G2).
For experiment [4], the target named is MAP3K12 (human) (UniProt Q12852).
Experiment [5] addresses TNK2 (human) (UniProt Q07912).
In experiment [6] the target is SIK1 (human) (UniProt P57059).
The target of experiment [7] is PRKAA2 (human) (UniProt P54646).
Experiment [8] has as its target ADCK3 (human) (UniProt Q8NI60).
The target in experiment [9] is NUAK2 (human) (UniProt Q9H093).
Sequence of NUAK2 (human) (Q9H093 whole entry, looked up): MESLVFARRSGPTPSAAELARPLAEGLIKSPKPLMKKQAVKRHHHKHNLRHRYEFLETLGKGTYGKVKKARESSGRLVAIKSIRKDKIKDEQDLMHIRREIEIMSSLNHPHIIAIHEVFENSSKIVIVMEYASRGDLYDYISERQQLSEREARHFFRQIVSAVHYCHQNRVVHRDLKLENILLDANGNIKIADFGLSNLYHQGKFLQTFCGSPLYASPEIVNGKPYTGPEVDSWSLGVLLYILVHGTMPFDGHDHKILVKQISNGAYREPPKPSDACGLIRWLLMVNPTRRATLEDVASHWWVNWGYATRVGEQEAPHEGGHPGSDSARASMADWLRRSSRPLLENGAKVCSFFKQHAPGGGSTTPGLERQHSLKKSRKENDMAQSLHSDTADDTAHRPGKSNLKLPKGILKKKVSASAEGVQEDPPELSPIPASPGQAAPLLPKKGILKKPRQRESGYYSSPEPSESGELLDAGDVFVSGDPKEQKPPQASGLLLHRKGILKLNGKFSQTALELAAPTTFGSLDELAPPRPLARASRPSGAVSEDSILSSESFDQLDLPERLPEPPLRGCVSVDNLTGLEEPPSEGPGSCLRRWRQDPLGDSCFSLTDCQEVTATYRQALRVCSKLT
Experiment [10] deals with ULK3 (human) (UniProt Q6PHR2).
Experiment [11] deals with INSRR (human) (UniProt P14616).
In experiment [12] the target is PAK1 (human) (UniProt Q13153).
Experiment [13] has as its target RPS6KA3 KD1 (human) (UniProt P51812).
For experiment [14], the target named is PLK3 (human) (UniProt Q9H4B4).
Sequence of PLK3 (human) (Q9H4B4 whole entry, looked up): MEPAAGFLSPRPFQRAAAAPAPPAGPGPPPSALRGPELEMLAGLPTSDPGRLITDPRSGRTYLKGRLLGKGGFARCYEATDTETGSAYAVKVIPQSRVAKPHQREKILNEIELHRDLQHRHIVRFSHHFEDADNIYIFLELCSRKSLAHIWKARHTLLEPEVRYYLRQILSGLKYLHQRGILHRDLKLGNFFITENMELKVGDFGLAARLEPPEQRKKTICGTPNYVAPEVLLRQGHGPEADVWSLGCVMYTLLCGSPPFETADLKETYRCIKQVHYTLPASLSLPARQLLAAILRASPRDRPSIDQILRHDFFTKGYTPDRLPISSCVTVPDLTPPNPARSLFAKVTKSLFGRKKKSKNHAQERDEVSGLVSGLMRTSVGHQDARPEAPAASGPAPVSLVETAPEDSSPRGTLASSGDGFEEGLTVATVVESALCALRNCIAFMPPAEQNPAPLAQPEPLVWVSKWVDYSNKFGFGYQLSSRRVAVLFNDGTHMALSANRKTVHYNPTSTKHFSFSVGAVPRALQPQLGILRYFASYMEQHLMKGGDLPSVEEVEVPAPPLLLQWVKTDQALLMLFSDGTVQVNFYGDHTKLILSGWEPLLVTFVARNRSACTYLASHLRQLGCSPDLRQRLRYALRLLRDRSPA
The target of experiment [15] is ROCK2 (human) (UniProt O75116).
The target of experiment [16] is CSF1R (human) (UniProt P07333).
Experiment [17] concerns the target CDK11A (human) (UniProt Q9UQ88).
Experiment [18] concerns the target PDGFRA (human) (UniProt P16234).
Experiment [19] addresses EPHA8 (human) (UniProt P29322).
Experiment [20] deals with MLTK (human) (UniProt Q9NYL2).
Sequence of MLTK (human) (Q9NYL2 whole entry, looked up): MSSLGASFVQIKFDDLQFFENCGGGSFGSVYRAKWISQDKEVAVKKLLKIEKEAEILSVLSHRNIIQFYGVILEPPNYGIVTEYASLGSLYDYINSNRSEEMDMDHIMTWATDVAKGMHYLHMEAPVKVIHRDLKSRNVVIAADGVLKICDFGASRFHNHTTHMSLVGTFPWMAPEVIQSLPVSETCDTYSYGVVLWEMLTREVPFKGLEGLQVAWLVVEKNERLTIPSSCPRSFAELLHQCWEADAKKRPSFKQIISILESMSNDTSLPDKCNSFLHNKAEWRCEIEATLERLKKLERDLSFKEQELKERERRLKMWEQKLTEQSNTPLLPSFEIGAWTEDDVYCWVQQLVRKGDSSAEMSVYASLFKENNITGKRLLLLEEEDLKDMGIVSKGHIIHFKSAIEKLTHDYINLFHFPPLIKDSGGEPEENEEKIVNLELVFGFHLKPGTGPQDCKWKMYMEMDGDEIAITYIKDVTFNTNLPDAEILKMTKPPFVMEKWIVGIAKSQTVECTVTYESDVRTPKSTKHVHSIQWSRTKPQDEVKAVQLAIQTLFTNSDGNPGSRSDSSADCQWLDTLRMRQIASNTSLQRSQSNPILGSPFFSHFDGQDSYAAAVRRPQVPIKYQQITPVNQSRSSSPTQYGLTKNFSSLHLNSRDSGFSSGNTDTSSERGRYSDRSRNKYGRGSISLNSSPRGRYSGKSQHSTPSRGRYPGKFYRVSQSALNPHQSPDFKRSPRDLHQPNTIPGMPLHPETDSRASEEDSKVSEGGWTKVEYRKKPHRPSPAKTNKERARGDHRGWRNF
Experiment [21] concerns RET (human), P07949 [M918T].
The target of experiment [22] is KDR (human) (UniProt P35968).
The target in experiment [23] is EIF2AK2 (human) (UniProt P19525).
Sequence of EIF2AK2 (human) (P19525 whole entry, looked up): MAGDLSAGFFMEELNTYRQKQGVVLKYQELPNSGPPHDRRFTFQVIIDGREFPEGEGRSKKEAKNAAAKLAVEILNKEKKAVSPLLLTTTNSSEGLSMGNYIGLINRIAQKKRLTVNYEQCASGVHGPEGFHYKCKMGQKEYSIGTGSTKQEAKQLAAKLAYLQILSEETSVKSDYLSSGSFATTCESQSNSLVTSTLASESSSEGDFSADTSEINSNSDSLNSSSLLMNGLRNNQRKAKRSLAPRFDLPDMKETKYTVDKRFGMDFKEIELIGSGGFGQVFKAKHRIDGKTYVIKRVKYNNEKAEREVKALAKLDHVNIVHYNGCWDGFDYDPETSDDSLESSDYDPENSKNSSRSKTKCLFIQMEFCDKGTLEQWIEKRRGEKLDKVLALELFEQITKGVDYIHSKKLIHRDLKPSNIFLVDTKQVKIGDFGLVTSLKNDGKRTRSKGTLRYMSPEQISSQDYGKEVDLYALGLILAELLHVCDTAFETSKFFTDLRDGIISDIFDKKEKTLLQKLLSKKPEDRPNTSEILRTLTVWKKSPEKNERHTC
Experiment [24] addresses CDC2L2 (human) (UniProt Q9UQ88).
The target of experiment [25] is MAPK4 (human) (UniProt P31152).
Experiment [26] deals with ABL2 (human) (UniProt P42684).
The target in experiment [27] is EPHA6 (human) (UniProt Q9UF33).
For experiment [28], the target named is MST4 (human) (UniProt Q9P289).
Experiment [29] addresses FGFR3 (human) (UniProt P22607).
In experiment [30] the target is GSK3B (human) (UniProt P49841).
Experiment [31] addresses MAPK3 (human) (UniProt P27361).
Experiment [32] addresses MAPK12 (human) (UniProt P53778).
For experiment [33], the target named is ANKK1 (human) (UniProt Q8NFD2).
Experiment [34] addresses NEK9 (human) (UniProt Q8TD19).
Experiment [35] has as its target JAK1 JH1 catalytic (human) (UniProt P23458).
Experiment [36] concerns the target PRKACA (human) (UniProt P17612).
Experiment [37] concerns the target FGFR4 (human) (UniProt P22455).
The target of experiment [38] is PRKCD (human) (UniProt Q05655).
In experiment [39] the target is NEK1 (human) (UniProt Q96PY6).
Experiment [40] has as its target DCLK1 (human) (UniProt O15075).
The target in experiment [41] is MET (human) (UniProt P08581).
For experiment [42], the target named is YES1 (human) (UniProt P07947).

Sequence of PDGFRA (human) (P16234 whole entry, looked up): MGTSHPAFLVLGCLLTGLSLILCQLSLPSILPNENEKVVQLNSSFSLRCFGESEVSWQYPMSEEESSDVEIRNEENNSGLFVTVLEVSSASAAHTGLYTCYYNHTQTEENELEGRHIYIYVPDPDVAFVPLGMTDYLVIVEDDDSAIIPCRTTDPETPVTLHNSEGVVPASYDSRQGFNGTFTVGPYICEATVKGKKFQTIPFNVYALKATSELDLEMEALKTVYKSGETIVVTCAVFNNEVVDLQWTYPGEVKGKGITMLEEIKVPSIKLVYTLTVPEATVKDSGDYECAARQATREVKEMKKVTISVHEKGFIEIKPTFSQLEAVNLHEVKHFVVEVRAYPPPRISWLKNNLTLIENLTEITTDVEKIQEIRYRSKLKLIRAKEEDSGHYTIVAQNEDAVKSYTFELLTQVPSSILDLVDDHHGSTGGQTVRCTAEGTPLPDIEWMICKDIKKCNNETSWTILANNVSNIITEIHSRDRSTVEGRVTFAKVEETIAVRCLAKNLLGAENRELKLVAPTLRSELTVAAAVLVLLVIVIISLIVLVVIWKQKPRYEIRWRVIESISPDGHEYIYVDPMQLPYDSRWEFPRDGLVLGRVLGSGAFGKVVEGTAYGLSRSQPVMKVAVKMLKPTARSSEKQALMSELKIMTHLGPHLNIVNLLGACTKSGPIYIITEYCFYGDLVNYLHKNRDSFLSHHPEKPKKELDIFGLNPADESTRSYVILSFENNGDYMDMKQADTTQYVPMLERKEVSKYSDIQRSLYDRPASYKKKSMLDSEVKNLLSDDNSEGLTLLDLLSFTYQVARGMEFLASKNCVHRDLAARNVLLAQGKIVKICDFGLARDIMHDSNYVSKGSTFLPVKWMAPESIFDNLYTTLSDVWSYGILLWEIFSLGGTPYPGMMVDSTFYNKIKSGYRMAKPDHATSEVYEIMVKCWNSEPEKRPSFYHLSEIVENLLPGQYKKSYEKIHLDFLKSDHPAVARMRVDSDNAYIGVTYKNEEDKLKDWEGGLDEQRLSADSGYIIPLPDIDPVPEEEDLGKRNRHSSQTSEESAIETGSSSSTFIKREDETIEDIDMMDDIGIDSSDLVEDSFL
Sequence of SLK (human) (Q9H2G2 whole entry, looked up): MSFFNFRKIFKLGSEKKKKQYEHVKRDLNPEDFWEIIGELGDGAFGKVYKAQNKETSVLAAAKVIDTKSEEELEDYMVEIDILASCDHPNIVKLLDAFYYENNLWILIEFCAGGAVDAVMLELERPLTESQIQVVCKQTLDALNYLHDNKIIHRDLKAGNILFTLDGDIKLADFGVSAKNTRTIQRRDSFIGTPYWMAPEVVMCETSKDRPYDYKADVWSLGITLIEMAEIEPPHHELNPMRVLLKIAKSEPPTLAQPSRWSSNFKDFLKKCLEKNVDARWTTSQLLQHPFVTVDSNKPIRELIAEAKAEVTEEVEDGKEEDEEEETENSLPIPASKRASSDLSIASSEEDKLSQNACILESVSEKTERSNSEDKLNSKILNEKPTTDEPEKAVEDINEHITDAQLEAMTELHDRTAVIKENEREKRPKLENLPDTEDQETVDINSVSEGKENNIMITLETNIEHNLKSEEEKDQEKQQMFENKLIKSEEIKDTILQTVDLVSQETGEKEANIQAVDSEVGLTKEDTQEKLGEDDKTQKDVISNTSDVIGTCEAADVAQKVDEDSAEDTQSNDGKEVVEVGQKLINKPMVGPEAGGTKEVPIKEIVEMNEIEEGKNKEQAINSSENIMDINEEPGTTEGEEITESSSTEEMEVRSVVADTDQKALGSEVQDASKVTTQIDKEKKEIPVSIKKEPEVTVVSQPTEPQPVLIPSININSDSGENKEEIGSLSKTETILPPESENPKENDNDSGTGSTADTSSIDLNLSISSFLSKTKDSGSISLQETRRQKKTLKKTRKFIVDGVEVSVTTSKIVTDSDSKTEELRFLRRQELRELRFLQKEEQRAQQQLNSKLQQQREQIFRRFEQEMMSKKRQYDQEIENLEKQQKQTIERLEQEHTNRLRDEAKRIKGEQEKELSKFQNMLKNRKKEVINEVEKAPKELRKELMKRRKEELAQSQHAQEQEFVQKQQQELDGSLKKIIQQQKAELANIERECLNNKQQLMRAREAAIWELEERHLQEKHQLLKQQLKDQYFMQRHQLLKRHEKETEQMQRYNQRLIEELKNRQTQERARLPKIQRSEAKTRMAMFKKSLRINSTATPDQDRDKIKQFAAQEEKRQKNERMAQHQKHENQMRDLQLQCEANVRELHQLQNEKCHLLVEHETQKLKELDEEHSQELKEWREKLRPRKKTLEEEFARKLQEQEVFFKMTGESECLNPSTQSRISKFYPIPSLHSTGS

Turning to `O=C1NC(=O)/C(=C/c2c[nH]c(=O)c(-c3ccc(N4CCNCC4)nc3)c2)S1`, the kinase still bound, per cent of control was 77% in experiment [1]; 86% in [2]; 29% in experiment [3]; 76% in [4]; 100% in experiment [5]; 100% in [6]. The kinase still bound, per cent of control in experiment [7] stood at 100%; in experiment [8], 76%; in [9], 37%; in [10], 100%; in experiment [11] it was 86%; in experiment [12], 90%. Moreover, the kinase still bound, per cent of control was 42% in [13]; 85% in [14]; 56% in [15]; 69% in experiment [16]; 63% in experiment [17]; 99% in [18]. Besides, the kinase still bound, per cent of control was determined as 76% in experiment [19]; 92% in experiment [20]; 46% in experiment [21]; 100% in experiment [22]; 38% in experiment [23]; 95% in experiment [24]. The kinase still bound, per cent of control turned out to be 100% in [25]; 78% in [26]; 97% in [27]; 80% in experiment [28]; 84% in [29]; 53% in experiment [30]. In addition, the kinase still bound, per cent of control in experiment [31] came out at 94%; in [32], 60%; in [33], 70%; in experiment [34], 71%; in [35], 24%; in experiment [36], 100%. Also, the kinase still bound, per cent of control in experiment [37] was found to be 93%; in [38], 32%; in experiment [39], 73%; in [40], 73%; in experiment [41], 97%; in experiment [42] it was 97%.

On to `N=C1NC(=O)/C(=C/c2ccc(-c3ccc(F)cc3O)o2)S1`, for which the kinase still bound, per cent of control in experiment [28] is 32%.

Consider `O=C1NC(=S)S/C1=C\c1ccc(-c2cncc3ccccc23)o1`, for which the kinase still bound, per cent of control in experiment [5] was found to be 34%; in [17] it was 2%; in [20], 31%; in [22], 21%; in experiment [23] it was 23%; in experiment [33], 34%. Moreover, the kinase still bound, per cent of control in experiment [39] was determined as 31%.

On to `CS(=O)(=O)Nc1ccc(-c2cc(/C=C3\SC(=N)NC3=O)c[nH]c2=O)cc1`, for which the kinase still bound, per cent of control amounted to 8% in experiment [18] and 34% in experiment [38].

With `CS(=O)(=O)Nc1ccc(-c2ncc(/C=C3\SC(=N)NC3=O)s2)cc1`, the kinase still bound, per cent of control in [3] was 1.4%; in experiment [18], 26%; in [21] it was 3.4%.

Take `CN1C(=O)[C@H]2CCC[C@H]2N(C2CCCC2)c2nc(Nc3ccc(C(N)=O)cc3)ncc21`: the kinase still bound, per cent of control in experiment [3] was 3.4%; in experiment [14], 4.7%; in [33] it was 26%; in [34], 8.9%; in experiment [40] it was 5.8%; in [41], 4.5%.

Take `N=C1NC(=O)/C(=C/c2ccc(-c3cncc4ccccc34)o2)S1`: the kinase still bound, per cent of control in [7] worked out at 33%; in experiment [14] it was 16%; in [17], 0.45%; in experiment [18] it was 26%; in [20] it was 23%; in experiment [21], 21%. Besides, the kinase still bound, per cent of control in experiment [23] amounted to 25%; in [39], 33%.

`CSC1=NC(=O)/C(=C/c2c[nH]c(=O)c(-c3ccc(NS(C)(=O)=O)cc3)c2)S1`: the kinase still bound, per cent of control in [9] was determined as 32%.

In [30], `N=C1NC(=O)/C(=C/c2ccc(-c3csc4ccccc34)o2)S1` came in with a kinase still bound, per cent of control of 12%.

For `CS(=O)(=O)Nc1ccc(-c2cncc(/C=C3\SC(=N)NC3=O)c2)cc1`, the kinase still bound, per cent of control in experiment [3] came to 2.8%; in experiment [12] it was 9.4%; in experiment [20], 7.6%.

In turn, `N=C1NC(=O)/C(=C/c2c[nH]c(=O)c(-c3ccc(N4CCNCC4)nc3)c2)S1` returned a kinase still bound, per cent of control in [9] of 26%.
